Measurements: patent US20240292840A1, “TRIAZOLE COMPOUNDS FOR THE CONTROL OF INVERTEBRATE PESTS” (priority 2021, published 2024)

Key:
[1] = tested on: Boll Weevil (Anthonomus grandis); assay: B.5 Boll weevil egg/larval test on insect diet in microtiter plates; type: in vivo; settings: 120 h, egg and larval mortality, 5 days, read-out: mortality in comparison with untreated controls
Experimental: B.5 Boll Weevil (Anthonomus grandis)
For evaluating control of boll weevil (Anthonomus grandis), the test unit consisted of 96-well-microtiter plates containing an insect diet and 5-10 A. grandis eggs.
The compounds were formulated using a solution containing 75% v/v water and 25% v/v DMSO. Different concentrations of formulated compounds were sprayed onto the insect diet at 5 μl, using a custom-built micro atomizer, at two replications.
After application, microtiter plates were incubated at about 25±1° C. and about 75±5% relative humidity for 5 days. Egg and larval mortality was then visually assessed.

[2] = tested on: Yellow Fever Mosquito (Aedes aegypti); assay: whole plant or invertebrate; type: in vivo; settings: 48 h, larval mortality, 2 days, read-out: mortality in comparison with untreated controls
Experimental: B.8 Yellow Fever Mosquito (Aedes aegypti)
For evaluating control of yellow fever mosquito (Aedes aegypti) the test unit consisted of 96-well-microtiter plates containing 200 μl of tap water per well and 5-15 freshly hatched A. aegypti larvae.
The active compounds were formulated using a solution containing 75% (v/v) water and 25% (v/v) DMSO. Different concentrations of formulated compounds or mixtures were sprayed onto the insect diet at 2.5 μl, using a custom-built micro atomizer, at two replications.
After application, microtiter plates were incubated at 28±1° C., 80±5% RH for 2 days. Larval mortality was then visually assessed.

| Structure (SMILES) | mortality at 2500 ppm [1] | mortality at 2500 ppm [2] |
| --- | --- | --- |
| C/C(=N\O)n1ncnc1C(C)NC(=O)c1cc(C(F)(F)F)cc(C(F)(F)F)c1 (centres unmarked) [I.1-76, N-[1-[2-[(E)-N-hydroxy-C-methyl-carbonimidoyl]-1,2,4-triazol-3-yl]ethyl]-3,5-bis(trifluoromethyl)benzamide] | ≥ 75% |  |
| C/C(=N/O)n1ncnc1C(C)NC(=O)c1cc(C(F)(F)F)cc(C(F)(F)F)c1 (centres unmarked) [I.1-1, N-[1-[2-[(Z)—N-hydroxy-C-methyl-carbonimidoyl]-1,2,4-triazol-3-yl]ethyl]-3,5-bis(trifluoromethyl)benzamide] | ≥ 75% |  |
| CC(=NOc1ccccc1)n1ncnc1C(C)NC(=O)c1cc(Cl)cc(C(F)(F)F)c1 (centres unmarked) [I.1-13, 3-chloro-N-[1-[2-[C-methyl-N-phenoxy-carbonimidoyl]-1,2,4-triazol-3-yl]ethyl]-5-(trifluoromethyl)benzamide] |  | ≥ 75% |
| CCON=C(C)n1ncnc1C(C)NC(=O)c1cc(Cl)cc(C(F)(F)F)c1 (centres unmarked) [I.1-12, 3-chloro-N-[1-[2-(N-ethoxy-C-methyl-carbonimidoyl)-1,2,4-triazol-3-yl]ethyl]-5-(trifluoromethyl)benzamide] | ≥ 75% | ≥ 75% |
